Laboratory results taken from US6642249B2, “Immunomodulating compounds” (Active Biotech AB, priority 2001, dated 2003).

Molecular target: T1, CD28-CD80 interactions (Homo sapiens, UniProt P33681)
T1 sequence (P33681 35-242 limits assumed): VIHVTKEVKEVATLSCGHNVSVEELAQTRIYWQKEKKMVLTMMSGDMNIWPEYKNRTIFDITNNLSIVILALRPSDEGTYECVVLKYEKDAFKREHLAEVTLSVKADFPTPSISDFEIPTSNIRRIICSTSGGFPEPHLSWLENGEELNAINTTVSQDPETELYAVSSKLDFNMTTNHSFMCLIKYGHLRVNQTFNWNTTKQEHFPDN
Assay: Time resolved fluorescence competition assay: CD28-CD80 interactions
Format: binding
Conditions: inhibition of CD28-mFc (5 nM) / CD80FabC215 (10 nM) interaction; representative results
Experimental: Time resolved fluorescence competition assay protocol: CD28-CD80 interactions.
50 mM Tris-HCl, 150 mM NaCl, 0.05% Tween 20, pH 7.8, containing 0.1% BSA (w/v), added prior to use.
The substances to be tested for inhibitory effects were serially diluted from stock concentrations of 20 mM (DMSO) in assay buffer to preparation concentrations of 200, 100, 50 and 25 μM. The final concentration in the wells was 100, 50, 25 and 12.5 μM, respectively. The maximum final DMSO concentration tolerated in the assay was 0.5%. Where appropriate, the dilution series was adjusted and extended to measure the IC50.
CTLA4-hIg(Fc) was diluted to working concentrations of 20 nM and 2 nM, resulting in final concentrations of 10 nM and 1 nM in the well. At these concentrations (10 nM and 1 nM) approximately 90% and 30% inhibition levels were observed.
Preparation of Reagent Mixture
To a tube containing 1.1 ml assay buffer, the following reagents were added:
900 μl of the above reagent mixture was transferred to a new tube. CD80FabC215 was added at a preparation concentration of 20 nM, (i.e. 4.3 μl from 0.4 mg/ml stock). The final concentration in the well was 10 nM.
To the remaining 200 μl reagent mixture C215Fab was added as control for non-specific binding (NSB). 0.5 μl from a 0.36 mg/ml stock gave a preparation concentration of 20 nM and a final concentration in the well of 10 nM.
To a black, half area, 96-well microtiter plate, the C215Fab containing reagent mixture was transferred to column 12, row E-H (4 wells), 10 μl/well with a single channel electronic pipette. 10 μl/well of the CD80FabC215 containing reagent mixture was transferred with a single channel electronic pipette to all other wells on the plate
B0: Assay buffer, 10 μl/well was pipetted to the CD80FabC215 containing wells in column 12, row A-D (4 wells).
NSB: Assay buffer, 10 μl/well was pipetted to the C215Fab containing wells in column 12, row E-H (4 wells).
CTLA4-hIg(Fc), 10 μl/well of 20 and 2 nM (final conc 10 and 1 nM) was pipetted in duplicate into well 11 E-F and 11 G-H.
Sample dilution series: 10 μl/well in duplicate to the remaining wells.
The plate was covered with a plastic lid and incubated in the dark: Initially for 1 h on a shaker platform at room temperature (RTS), stationary at +4° C. overnight, and finally 1 h RTS before reading.
The plate was measured on a Victor 1420 Multilabel Counter using the LANCE protocol (#2) measuring emission at dual wavelengths, from both APC (665 nm) and Europium (615 nm). First measurement: Excitation 340 nm, emission 665 nm, delay 50 μs, window time 200 μs. Second measurement: Excitation 340 nm, emission 615 nm, delay 50 μs, window time 200 μs.
The fluorescence signal ratio 1000* 665 nm/615 nm, from which the percentage inhibition was calculated, was determined. A logit b plot (Logit b=LN (% Bound/(100% −% Bound, plotted against Log conc) was performed from which IC50 was measured.

Structure (SMILES)	IC50 [nM]
O=C(O)CCc1ccc(-n2nc3c4ccccc4[nH]cc-3c2=O)cc1 [[4-(3-Oxo-3,5-dihydro-pyrazolo[4,3-c]quinolin-2-yl)-phenyl]-propionic Acid]	1600
O=C(O)c1ccc(-n2nc3c4ccccc4[nH]cc-3c2=O)cc1 [4-(3-oxo-3,5-dihydro-pyrazolo[4,3-c]quinolin-2-yl)-benzoic Acid]	480
O=C(O)CNC(=O)c1ccc(-n2nc3c4ccccc4[nH]cc-3c2=O)cc1 [2-[4-(3-Oxo-3,5-dihydro-pyrazolo[4,3-c]quinolin-2-yl)-benzoylamino]-2-acetic Acid]	3900
O=C(O)c1ccc(-n2nc3c4ccccc4[nH]cc-3c2=O)cc1Cl [2-Chloro-4-(3-oxo-3,5-dihydro-pyrazolo[4,3-c]quinolin-2-yl)-benzoic Acid]	270
O=C(O)c1cccc(-n2nc3c4ccccc4[nH]cc-3c2=O)c1 [3-(3-Oxo-3,5-dihydro-pyrazolo[4,3-c]quinolin-2-yl)-benzoic Acid]	880
O=C(O)c1ccc(-n2nc3c4ccccc4scc-3c2=O)cc1 [4-(3-Oxo-3H-thiochromeno[4,3-c]pyrazol-2-yl)benzoic Acid]	13500
O=C(O)CCC(=O)Nc1ccc(-n2nc3c4ccccc4[nH]cc-3c2=O)cc1 [N-[4-(3-Oxo-3,5-dihydro-pyrazolo[4,3-c]quinolin-2-yl)-phenyl]-succinamic Acid]	600
